Test results published in patent US9913468B2, “Microbicidal composition” (Dow Global Technologies LLC, priority 2013, dated 2018).
Where two headings read alike, the source gives them in different places. One block for each compound: values may come before it.

What was measured:
Assay type in all cases: cell-based
[1] = tested on: Staphylococcus aureus ATCC #6538; experiment: MIC / synergy index test in 96 well microtiter plates, Gram positive bacteria; details: S. aureus, 1/10 TSB; for MIC: Staphylococcus aureus, ATCC6538, 24 h, DTEA alone, read-out: MIC alone, CB (compound B)
Description: (§1) Surfactants and biocides were evaluated for synergy by determining the synergy index (S.I.) of the combination. Synergy index was calculated based on minimum inhibitory concentrations (MIC) of two antimicrobial compounds (A and B) alone and in combinations. The tests organisms were Gram negative bacteria (Pseudomonas aeruginosa ATCC #15442), Gram positive bacteria (Staphylococcus aureus ATCC #6538), yeast (Candida albicans ATCC#10203) and mold (Aspergillus niger ATCC#16404). Contact time for the bacteria was 24 and 48 hours, yeast was 48 and 72 hrs, and 3 and 7 days for mold. The test was carried out in 96 well microtiter plates. R^1O(CH2CH(CH3)O)5(CH2CH2O)9H, where R^1 is 2-ethylhexyl Surf. A R^2O(CH2CH(CH3)O)3(CH2CH2O)5H Surf. D R^2O(CH2CH(CH3)O)3(CH2CH2O)7H Surf. E In Surf. D and Surf. E, R^2 is a mixture of C8-C14 linear alkyl groups (70% C8-C10 linear alkyl and 30% C12-C14 linear alkyl) Inoculums Used
(§2) The pH of the Triptic soy broth was 7.3 and the Potato dextrose broth was 5.1.
(§3) SI is calculated as follows: Ca/CA+Cb/CB=Synergy Index (“SI”) Wherein: • CA=concentration of compound A in ppm, acting alone, which produced an end point (MIC of Compound A). • Ca=concentration of compound A in ppm, in the mixture, which produced an end point. • CB=concentration of compound B in ppm, acting alone, which produced an end point (MIC of Compound B). • Cb=concentration of compound B in ppm, in the mixture, which produced an end point. When the sum of Ca/CA and Cb/CB is greater than one, antagonism is indicated.

[2] = tested on: Aspergillus niger ATCC#16404; experiment: MIC / synergy index test in 96 well microtiter plates, mold; details: 3rd day, PDB; for MIC: Aspergillus niger, ATCC16404, DTEA alone, A. niger, read-out: MIC alone, CB (compound B)
Description: as §1, §2, §3

[3] = tested on: Pseudomonas aeruginosa ATCC #15442; experiment: MIC / synergy index test in 96 well microtiter plates, Gram negative bacteria; details: ATCC15442, 24 h, read-out: MIC alone, CB (compound B)
Description: as §1, with “Used […]” for “Used”
(§4) SI is calculated as follows: Ca/CA+Cb/CB=Synergy Index (“SI”) Wherein: • CA=concentration of compound A in ppm, acting alone, which produced an end point (MIC of Compound A). • Ca=concentration of compound A in ppm, in the mixture, which produced an end point. • CB=concentration of compound B in ppm, acting alone, which produced an end point (MIC of Compound B). • Cb=concentration of compound B in ppm, in the mixture, which produced an end point. […]

[4] = tested on: Candida albicans ATCC#10203; experiment: MIC / synergy index test in 96 well microtiter plates, yeast; details: C. albicans, PDB; for MIC: Candida albicans, ATCC10203, 48 h, DTEA alone, read-out: MIC alone, CB (compound B)
Description: as §1, §2, §3

[5] = tested on: any organism tested (Pseudomonas aeruginosa, Staphylococcus aureus, Candida albicans, Aspergillus niger); experiment: Synergy of other biocides paired with the surfactants, any organism tested; details: listed under Surf. D; except for one data point
Description: as §1, §4

[6] = inoculum 1.156E+06, Surf. A series

MIC [1, 6]: 4 µg/mL | MIC ([1]; inoculum 1.156E+06, Surf. E series): 5 µg/mL | MIC ([1]; inoculum 1.8E+05, Surf. D series): 5 µg/mL | MIC [2, 6]: 200 µg/mL | MIC ([2]; inoculum 1.156E+06, Surf. D series): 100 µg/mL | MIC ([2]; inoculum 1.56E+06, Surf. E series): 200 µg/mL | MIC [3]: 20 µg/mL | MIC [4, 6]: 50 µg/mL | MIC ([4]; inoculum 1.8E+06, Surf. E series): 50 µg/mL | MIC ([4]; inoculum 5.72E+05, Surf. D series): 40 µg/mL
Compound: CCCCCCCCCCSCCN [DTEA, 2-decylthioethylamine]

Compound: CCCCNC(=O)OCC#CI [IPBC]
Ratio of surfactant to biocide where synergy was observed [5]: synergistic only at 1:0.05 or worse

Compound: Cn1sc2ccccc2c1=O [MBIT]
Ratio of surfactant to biocide where synergy was observed [5]: synergistic only at 1:0.05 or worse

Compound: R^1O(CH2CH(CH3)O)5(CH2CH2O)9H, where R^1 is 2-ethylhexyl [Surf. A]
MIC alone, CA (compound A) ([1]; Surf. A alone, 24 hrs, inoculum 1.156E+06): >20000 ppm | MIC alone, CA (compound A) ([2]; Surf. A alone, inoculum 1.156E+06): >20000 ppm | MIC alone, CA (compound A) ([4]; Surf. A alone, 48 hrs, inoculum 1.156E+06): >20000 ppm
